What was measured:
Assay type in all cases: biochemical, bovine
PDE3 = molecular target: T1, PDE3 (Bos taurus, UniProt A0A3Q1M1E8); experiment: Selectivity: inhibition of PDE3 (radioenzymatic assay); settings: Table 2; 10 μM compound; read-out: PDE3 percentage inhibition at 10 μM
T1 sequence (A0A3Q1M1E8 1-1126): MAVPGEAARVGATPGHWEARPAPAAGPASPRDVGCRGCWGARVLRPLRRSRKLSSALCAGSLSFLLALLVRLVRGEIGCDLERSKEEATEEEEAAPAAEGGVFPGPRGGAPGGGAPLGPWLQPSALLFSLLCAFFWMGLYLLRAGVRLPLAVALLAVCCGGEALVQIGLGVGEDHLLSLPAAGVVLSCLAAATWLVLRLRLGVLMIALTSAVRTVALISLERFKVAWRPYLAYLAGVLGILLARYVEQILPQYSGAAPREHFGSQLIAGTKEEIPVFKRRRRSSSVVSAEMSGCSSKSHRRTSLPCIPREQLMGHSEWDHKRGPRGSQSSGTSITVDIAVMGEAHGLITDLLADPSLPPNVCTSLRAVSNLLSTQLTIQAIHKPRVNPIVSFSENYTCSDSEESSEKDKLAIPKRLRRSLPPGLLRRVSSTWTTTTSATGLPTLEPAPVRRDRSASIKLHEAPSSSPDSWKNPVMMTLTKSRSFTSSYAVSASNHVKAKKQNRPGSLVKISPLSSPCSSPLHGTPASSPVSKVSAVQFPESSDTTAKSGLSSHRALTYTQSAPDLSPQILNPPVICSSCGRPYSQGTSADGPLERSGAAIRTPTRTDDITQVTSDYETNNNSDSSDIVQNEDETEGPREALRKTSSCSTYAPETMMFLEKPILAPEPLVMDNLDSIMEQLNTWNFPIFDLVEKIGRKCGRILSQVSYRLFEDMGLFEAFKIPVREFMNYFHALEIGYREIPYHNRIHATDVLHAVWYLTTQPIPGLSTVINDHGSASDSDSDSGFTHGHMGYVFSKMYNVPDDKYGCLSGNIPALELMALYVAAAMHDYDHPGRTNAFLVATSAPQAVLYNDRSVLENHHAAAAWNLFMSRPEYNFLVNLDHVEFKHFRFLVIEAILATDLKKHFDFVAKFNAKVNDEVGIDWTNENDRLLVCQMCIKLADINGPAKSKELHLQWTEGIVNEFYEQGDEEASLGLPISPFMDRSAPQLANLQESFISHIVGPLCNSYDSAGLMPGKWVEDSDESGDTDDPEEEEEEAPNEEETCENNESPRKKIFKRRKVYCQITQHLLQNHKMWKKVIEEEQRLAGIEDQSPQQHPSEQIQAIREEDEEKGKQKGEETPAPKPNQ
Procedure: (§1) 2.1.1. Isolation of Phosphodiesterases from Smooth Muscle A 3 g segment of bovine aortic media cut into pieces with scissors was homogenized with an ultra-turrax then a potter glass/glass homogenizer in 7 volumes by weight of buffer A containing a protease inhibitor cocktail (20 mM Tris-HCl, 0.25 M saccharose, 2 mM magnesium acetate, 1 mM dithiothreitol, 5 mM EGTA, 2000 U/ml aprotinin, 10 mg/l leupeptin and 10 mg/l soya trypsic inhibitor). The homogenizate was centrifuged at 105,000 g for 1 hour. The supernatant was loaded on a DEAE-Sephacel column (15×1.6 cm) pre-equilibrated with buffer B (buffer A without the saccharose, EGTA and protease inhibitors). The column was washed until there was no detectable absorption at 280 nm, then eluted with a linear gradient of NaCl (0-0.5 M) in buffer B. 3-ml fractions were collected and enzyme activity was determined under the conditions described hereinbelow to localize the different enzymes PDE1, PDE3, PDE4 and PDE5 which were aliquoted and frozen at −80° C. (Lugnier et al., Biochem. Phamacol., 1986, 35: 1746-1751). […]
(§2) Cyclic nucleotide phosphodiesterase activity was determined by a radioenzymatic method using tritium-labelled cyclic GMP or AMP (1 μM) as substrate (Lugnier et al., 1986). ^3H-labelled adenosine or guanosine monophosphate formed by hydrolysis of the radiolabelled cyclic nucleotide was then converted to ^3H-labelled adenosine or guanosine in a second reaction with one nucleotidase in excess. […] Nucleoside radioactivity was determined by liquid scintillation counting. […]
(§3) The activity of the compounds was evaluated on other phosphodiesterase isoforms, particularly basal state or calmodulin-activated PDE1 from vascular smooth muscle, PDE3, PDE4 and PDE5 from vascular smooth muscle. The results obtained are presented in Tables 1 and 2 hereinbelow and are expressed as the percentage inhibition of enzymatic activity produced by […] of the test compound.

PDE4 = experiment: Selectivity: inhibition of PDE4 (radioenzymatic assay); settings: Table 2
Procedure: 2.1.1. Isolation of Phosphodiesterases from Smooth Muscle A 3 g segment of bovine aortic media cut into pieces with scissors was homogenized with an ultra-turrax then a potter glass/glass homogenizer in 7 volumes by weight of buffer A containing a protease inhibitor cocktail (20 mM Tris-HCl, 0.25 M saccharose, 2 mM magnesium acetate, 1 mM dithiothreitol, 5 mM EGTA, 2000 U/ml aprotinin, 10 mg/l leupeptin and 10 mg/l soya trypsic inhibitor). The homogenizate was centrifuged at 105,000 g for 1 hour. The supernatant was loaded on a DEAE-Sephacel column (15×1.6 cm) pre-equilibrated with buffer B (buffer A without the saccharose, EGTA and protease inhibitors). The column was washed until there was no detectable absorption at 280 nm, then eluted with a linear gradient of NaCl (0-0.5 M) in buffer B. 3-ml fractions were collected and enzyme activity was determined under the conditions described hereinbelow to localize the different enzymes PDE1, PDE3, PDE4 and PDE5 which were aliquoted and frozen at −80° C. (Lugnier et al., Biochem. Phamacol., 1986, 35: 1746-1751). PDE2 was isolated from human platelets, provided by Etablissement Français du Sang-Alsace, according to Kameni Tcheudji J F et al., (J. Mol. Biol. 2001; 310: 181-791), and stored until use at −80° C. in small aliquots.
Cyclic nucleotide phosphodiesterase activity was determined by a radioenzymatic method using tritium-labelled cyclic GMP or AMP (1 μM) as substrate (Lugnier et al., 1986). ^3H-labelled adenosine or guanosine monophosphate formed by hydrolysis of the radiolabelled cyclic nucleotide was then converted to ^3H-labelled adenosine or guanosine in a second reaction with […] in excess. The nucleoside formed was separated from the nucleotides by anion exchange chromatography. Nucleoside radioactivity was determined by liquid scintillation counting. Enzymatic incubations were carried out under conditions allowing no more than 15% hydrolysis of the substrate; each point was performed in duplicate.
as §3

PDE5 = molecular target: T2, PDE5 (Bos taurus, UniProt Q28156); experiment: Selectivity: inhibition of PDE5 (radioenzymatic assay); settings: Table 2
T2 construct: PDE3, PDE4 and PDE5 from vascular smooth muscle; from tissue; host or cells: bovine aortic media (vascular smooth muscle), DEAE-Sephacel fraction
Procedure: as §1, §2, §3

## COc1cc2c(c(OC)c1-c1ccccc1)C(c1cccc(C(N)=O)c1)=NCC(=O)N2C [Compound 17, 3-(6,8-Dimethoxy-1-methyl-2-oxo-7-phenyl-2,3-dihydro-1H-benzo[e][1,4]diazepin-5-yl)-benzamide]
PDE3
  inhibition at 10 µM: 20%
PDE4; 10 μM compound
  PDE4 percentage inhibition at 10 μM: 23%
PDE4; value in square brackets
  IC50: 47 µM
PDE5; 10 μM compound, read-out: PDE5 percentage inhibition at 10 μM
  inhibition at 10 µM: 22%
PDE5; value in square brackets
  IC50: 42 µM
